Earlier results in patent publication US20050101577A1, “2-alkylidene-19-nor-vitamin D derivatives for the treatment of rickets or vitamin D deficiency” (Pfizer Inc., priority 2003, published 2005).

Test system: intestinal calcium transport
Details: 260 pmol/day, only dose tested

## C=C1/C(=C\C=C2/CCC[C@]3(C)[C@@H]([C@H](C)CCCC(C)(C)O)CC[C@@H]23)C[C@@H](O)C[C@@H]1O [1,25-(OH)2D3, 1,25-dihydroxyvitamin D3]
  intestinal calcium transport (in words): expected elevation of intestinal calcium transport
